# Tests used:
# VCaP cells = assay: Cellular proliferation assay (alamarBlue) VCaP; type: cell-based; settings: Homo sapiens, 168 hours, read-out: Prostate VCaP IC50
# Method: (§1) In accordance with the invention, the ability of the substances to inhibit the proliferation of various cell lines was determined. Cell viability was determined by means of the alamarBlue® reagent (Invitrogen). […] After incubation overnight at 37° C., the fluorescence values were determined (CI values). […] Then the fluorescence values were determined (CO values).
# (§2) The substances were investigated in the cell lines in Table 1, which for example represent the stated indications: […]
# MDA-MB-231 cells = assay: Cellular proliferation assay (alamarBlue) MDA-MB-231; type: cell-based; settings: Homo sapiens, 96 hours, read-out: Breast MDA-MB-231 IC50
# Method: as §1, §2
# MOLM-13 cells [1] = assay: MOLM-13 acute monocytic leukaemia tumour model; settings: for T/C value: day 3 to day 14, measured on day 14; for activity on tumour growth: significance P<0.05
# Method: NMRI nude mice were inoculated subcutaneously in the right flank on day 0 with 2×10^6 MOLM-13 cells in 0.1 ml Matrigel. […] Practical example 1 and practical example 2 were dissolved in 40% PEG400, 5% ethanol, 25% Solutol. The substances were administered orally, daily for […] (day 3 to day 14). […] Practical examples 1 and 2 were applied at a daily dose of 200 (highest dose used), 120 or 70 mg/kg.
# B16F10 cells = assay: Cellular proliferation assay (alamarBlue) B16F10; type: cell-based; settings: Mus musculus, B16-F10, 96 hours, read-out: Melanoma B16F10 IC50
# Method: as §1, §2
# MOLP-8 cells = assay: Cellular proliferation assay (alamarBlue) MOLP-8; type: cell-based; settings: Homo sapiens, 120 hours, read-out: Multiple myeloma MOLP-8 IC50
# Method: as §1, §2
# LNCaP cells = assay: Cellular proliferation assay (alamarBlue) LNCaP; type: cell-based; settings: Homo sapiens, 168 hours, read-out: Prostate LNCaP IC50
# Method: as §1, §2
# MOLM-13 cells [2] = assay: Cellular proliferation assay (alamarBlue) MOLM-13; type: cell-based; settings: Homo sapiens, 96 hours, read-out: Leukaemia MOLM-13 IC50
# Method: as §1, §2
# [3] = In-vivo tolerability in the mouse; parameters: species or system female NMRI nude mice; settings: for MTD / MTD at 5 days: female, NMRI nude, mouse, in vivo, oral; for MTD: once daily, read-out: maximum tolerated treatment dose (MTD), single daily treatment; for MTD at 5 days: twice daily, after 5 days of treatment, read-out: maximum tolerated treatment dose (MTD), twice daily administration; for Drug-induced deaths (day): 3 animals per group; for tolerability at all doses tested: treatment once or twice daily
# Method: The substances were formulated in NMP/PEG300 (1/9 V/V). They were administered orally, in an amount of 10 ml/kg, once or twice daily for a period of 5 to 7 days to female NMRI nude mice (6-8 weeks old; 3 animals per group). Body weight and mortality of the mice were monitored daily up to the end of the study. Toxicity was defined as follows: ≧10% substance-induced deaths or ≧20% weight loss.
# plasma proteins = assay: Plasma protein binding by equilibrium dialysis; type: in vitro ADME, mouse; settings: for fu: free fraction of the species investigated (mouse), as used in Table 6; for fraction unbound: mouse, plasma, free (unbound) fraction, equilibrium dialysis, read-out: Protein binding, given as % fu
# Method: The binding of test substances to plasma proteins is determined by equilibrium dialysis by means of the Ht-dialysis apparatus (96-well) made of Teflon and a semipermeable membrane (regenerated cellulose, MWCO 12-14K). This separates 150 μl of each of a plasma side and a buffer side (50 mM phosphate buffer). The test substance is added in 2 concentrations (usually 3 and 0.3 μM) to the plasma side and binds to plasma proteins. The unbound fraction of the test substance passes through the membrane and is distributed on either side until equilibrium is established (after approx. 6-8 h at 37° C.). The substance concentration on the buffer side and the plasma side is determined by LC-MS analysis. For this, both sides are brought by dilution with buffer or plasma to the same matrix (10% plasma) and then precipitated with methanol. The free (unbound) fraction (fu) is calculated from the quotient of the buffer and plasma concentration. Stability tests and recovery tests are run concurrently as controls. In addition, the substance in buffer is dialysed against buffer, to check the nonspecific binding to apparatus and membrane and establishment of equilibrium. Because during incubation the osmotic pressure of the plasma proteins leads to dilution of the plasma (volume shift), this possible error is determined by weighing blank plasma samples and is included in the calculation of fu. Establishment of equilibrium and plasma stability should have a value not lower than 80% and the recovery should be at least 30%. A free fraction of <1% is regarded as high, between 1 and 10% as moderate and >10% as low plasma protein binding.
# [4] = Plasma concentrations from in-vivo tests and PK parameters; parameters: AUC(0-tlast): unit not given here; settings: mouse; for unbound exposure in comparison with comparative example V1: after single oral administration, by AUC(0-tlast),norm,u; for AUC(0-tlast),norm,u: AUCnorm multiplied by fu; for AUC(0-tlast),norm: dose-normalized; for tlast: last time point with measurable plasma concentration; for Plasma concentration: 50 mg/kg p.o.
# Method: After thawing and shaking, the samples are centrifuged for 20 minutes at 4° C. and approx. 2000×g. An aliquot of the supernatant (approx. 25 μL) is measured by LCMS analysis. If high plasma or tissue levels are expected (>ULOQ, as a rule 5 μM) the precipitated samples are additionally diluted 1:100 with ACN/H2O (80/20, v/v)+internal standard and corresponding aliquots are measured by LCMS. For this, the test substance is added in 5-9 concentrations, corresponding to the determination range of the analytical method, to a control matrix (calibration samples), e.g. 0, 1, 10, 100, 1000, 5000 nM. For this, a portion of solid is weighed and is dissolved in DMSO (as a rule 1 mM stock solution). This stock solution is further diluted 1:10 with DMSO ([…]). Then 1:5 (v/v) ACN+internal standard (soln. A) is added to the calibration samples and processed further as with the plasma samples. The calibration series in solvent takes place similarly to the plasma calibration described. The test substance is in this case prepared in ACN/H2O (50/50, v/v) and then 1:5 (v/v) ACN+internal standard is added to the samples. This series serves for calibration of the diluted samples. The following PK parameters are calculated from these concentration-time profiles obtained: […]
# AUC(0-tlast),norm multiplied by the free fraction (fu) of the species investigated.
# [5] = oral 50 mg/kg, QD × 5, once daily
# [6] = oral 50 mg/kg, QD × 5, twice daily
# [7] = oral 100 mg/kg, QD × 5, once daily
# [8] = oral 100 mg/kg, QD × 5, twice daily
# [9] = oral 200 mg/kg, QD × 5, once daily
smiles,measurement,setting,value
"Cc1sc2c(c1C)C(c1ccc(Cl)cc1)=N[C@@H](CC(=O)N1C3CCC1CC(=O)C3)c1nnc(C)n1-2 [Example 1, 8-{2-[(S)-4-(4-Chlorophenyl)-2,3,9-trimethyl-6H-thieno[3,2-f][1,2,4]triazolo[4,3-a][1,4]diazepin-6-yl]acetyl}-8-azabicyclo[3.2.1]octan-3-one]",IC50,VCaP cells,39 nM
same,IC50,MDA-MB-231 cells,110 nM
same,T/C value,MOLM-13 cells [1]; 70 mg/kg oral daily,58%
same,activity on tumour growth,MOLM-13 cells [1]; 70 mg/kg oral daily,inactive
same,T/C value,MOLM-13 cells [1]; 120 mg/kg oral daily,46%
same,activity on tumour growth,MOLM-13 cells [1]; 120 mg/kg oral daily,showed activity
same,T/C value,MOLM-13 cells [1]; 200 mg/kg oral daily,39%
same,activity on tumour growth,MOLM-13 cells [1]; 200 mg/kg oral daily,inhibited tumour growth
same,IC50,B16F10 cells,97 nM
same,IC50,MOLP-8 cells,70 nM
same,IC50,LNCaP cells,90 nM
same,IC50,MOLM-13 cells [2],91 nM
same,MTD,[3],≥ 200 mg/kg
same,MTD at 5 days,[3],≥ 100 mg/kg
same,% maximum body weight change (day),[3]; [5],+7 (6) %
same,Remarks (tolerability),[3]; [5],tolerated
same,Drug-induced deaths (day),[3]; [5],0/3
same,% maximum body weight change (day),[3]; [6],+5 (4) %
same,Remarks (tolerability),[3]; [6],tolerated
same,Drug-induced deaths (day),[3]; [6],0/3
same,% maximum body weight change (day),[3]; [7],+6 (6) %
same,Remarks (tolerability),[3]; [7],tolerated
same,Drug-induced deaths (day),[3]; [7],0/3
same,% maximum body weight change (day),[3]; [8],−1 (6) %
same,Remarks (tolerability),[3]; [8],HDT tolerated
same,Drug-induced deaths (day),[3]; [8],0/3
same,% maximum body weight change (day),[3]; [9],+5 (6) %
same,Remarks (tolerability),[3]; [9],HDT tolerated
same,Drug-induced deaths (day),[3]; [9],0/3
same,tolerability at all doses tested,[3],well tolerated
same,fu,plasma proteins,12%
same,fraction unbound,plasma proteins,0.12
same,concentration at 1 h,"[4]; in vivo, po, 100 mg/kg p.o., 1 h",1470 ng/mL
same,unbound exposure in comparison with comparative example V1,[4],higher unbound exposure
same,AUC(0-tlast),[4]; single oral dose 100 mg/kg,4.9
same,"AUC(0-tlast),norm,u",[4]; single oral dose 100 mg/kg,0.006 kg·h/L
same,"AUC(0-tlast),norm",[4]; single oral dose 100 mg/kg,0.05 kg·h/L
same,tlast,[4]; single oral dose 100 mg/kg,24 h
same,concentration at 3 h,"[4]; plasma, po, 100 mg/kg p.o., 3 h",836 ng/mL
same,concentration at 6 h,"[4]; plasma, po, 100 mg/kg p.o., 6 h",176 ng/mL
same,concentration at 24 h,"[4]; plasma, po, 100 mg/kg p.o., 24 h",1.56 ng/mL
"Cc1sc2c(c1C)C(c1ccc(Cl)cc1)=N[C@@H](CC(=O)N1CC3(COC3)C1)c1nnc(C)n1-2 [Example 2, 2-[(S)-4-(4-Chlorophenyl)-2,3,9-trimethyl-6H-thieno[3,2-f][1,2,4]triazolo[4,3-a][1,4]diazepin-6-yl]-1-(2-oxa-6-azaspiro[3.3]hept-6-yl)ethan-1-one]",IC50,VCaP cells,58 nM
same,IC50,MDA-MB-231 cells,117 nM
same,T/C value,MOLM-13 cells [1]; 70 mg/kg oral daily,46%
same,activity on tumour growth,MOLM-13 cells [1]; 70 mg/kg oral daily,not statistically significant
same,T/C value,MOLM-13 cells [1]; 120 mg/kg oral daily,46%
same,activity on tumour growth,MOLM-13 cells [1]; 120 mg/kg oral daily,not statistically significant
same,T/C value,MOLM-13 cells [1]; 200 mg/kg oral daily,23%
same,activity on tumour growth,MOLM-13 cells [1]; 200 mg/kg oral daily,active
same,deaths in the treated group,"MOLM-13 cells [1]; MOLM-13 tumour model, dose group not stated",one unexplained death
same,IC50,B16F10 cells,82 nM
same,IC50,MOLP-8 cells,64 nM
same,IC50,LNCaP cells,80 nM
same,IC50,MOLM-13 cells [2],98 nM
same,MTD,[3],≥ 200 mg/kg
same,MTD at 5 days,[3],≥ 100 mg/kg
same,% maximum body weight change (day),[3]; [5],+5 (6) %
same,Remarks (tolerability),[3]; [5],tolerated
same,Drug-induced deaths (day),[3]; [5],0/3
same,% maximum body weight change (day),[3]; [6],+2 (6) %
same,Remarks (tolerability),[3]; [6],tolerated
same,Drug-induced deaths (day),[3]; [6],0/3
same,% maximum body weight change (day),[3]; [7],−1 (3) %
same,Remarks (tolerability),[3]; [7],tolerated
same,Drug-induced deaths (day),[3]; [7],0/3
same,% maximum body weight change (day),[3]; [8],−3 (5) %
same,Remarks (tolerability),[3]; [8],HDT tolerated
same,Drug-induced deaths (day),[3]; [8],0/3
same,% maximum body weight change (day),[3]; [9],+4 (4) %
same,Remarks (tolerability),[3]; [9],HDT tolerated
same,Drug-induced deaths (day),[3]; [9],0/3
same,tolerability at all doses tested,[3],well tolerated
same,fu,plasma proteins,25%
same,fraction unbound,plasma proteins,0.25
same,Plasma concentration,[4]; 1 h,1366.5 ng/mL
same,Plasma concentration,[4]; 3 h,2694.4 ng/mL
same,Plasma concentration,[4]; 6 h,1111.0 ng/mL
same,unbound exposure in comparison with comparative example V1,[4],higher unbound exposure
same,AUC(0-tlast),[4]; single oral dose 50 mg/kg,10
same,"AUC(0-tlast),norm,u",[4]; single oral dose 50 mg/kg,0.050 kg·h/L
same,"AUC(0-tlast),norm",[4]; single oral dose 50 mg/kg,0.20 kg·h/L
same,tlast,[4]; single oral dose 50 mg/kg,6.0 h

# Source: patent publication US20140213575A1, “6H-Thieno[3,2-f][1,2,4]triazolo[4,3-a][1,4]diazepines” (BAYER INTELLECTUAL PROPERTY GMBH, priority 2011, published 2014)
